In paper PMC5061470, “Promiscuous targeting of bromodomains by bromosporine identifies BET proteins as master regulators of primary transcription response in leukemia” (Science Advances, 2016):

Legend:
CREBBP = molecular target: T1, CREBBP (Homo sapiens, UniProt Q92793); assay type: binding
T1 construct: Human BRDs were subcloned into bacteria-expressing vectors; made in house; host or cells: bacteria

BAZ2A = molecular target: T2, BAZ2A (Homo sapiens, UniProt Q9UIF9); assay type: binding
T2 construct: Human BRDs were subcloned into bacteria-expressing vectors; made in house
T2 sequence (Q9UIF9 1793-1897 limits assumed): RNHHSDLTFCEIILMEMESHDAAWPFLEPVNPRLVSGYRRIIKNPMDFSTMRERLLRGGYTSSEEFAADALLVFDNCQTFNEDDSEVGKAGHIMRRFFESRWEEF

PAF (h) = PAF (h) (Homo sapiens, UniProt P25105); experiment: biochemical; assay type: binding; settings: read-out: % Inhibition of Control Specific Binding
Chain of PAF (h) (P25105 whole entry): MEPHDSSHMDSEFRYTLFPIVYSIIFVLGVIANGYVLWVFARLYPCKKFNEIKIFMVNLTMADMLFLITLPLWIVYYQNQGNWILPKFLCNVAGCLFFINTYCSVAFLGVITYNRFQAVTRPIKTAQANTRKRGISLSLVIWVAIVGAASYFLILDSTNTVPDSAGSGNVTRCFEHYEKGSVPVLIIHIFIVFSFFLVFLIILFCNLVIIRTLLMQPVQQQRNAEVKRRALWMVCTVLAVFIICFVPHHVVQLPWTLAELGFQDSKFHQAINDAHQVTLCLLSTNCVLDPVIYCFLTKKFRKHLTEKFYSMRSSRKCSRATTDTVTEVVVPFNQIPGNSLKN

A2A (h) = A2A (h) (Homo sapiens, UniProt P29274); experiment: biochemical; settings: read-out: % Inhibition of Control Specific Binding
Chain of A2A (h) (P29274 whole entry): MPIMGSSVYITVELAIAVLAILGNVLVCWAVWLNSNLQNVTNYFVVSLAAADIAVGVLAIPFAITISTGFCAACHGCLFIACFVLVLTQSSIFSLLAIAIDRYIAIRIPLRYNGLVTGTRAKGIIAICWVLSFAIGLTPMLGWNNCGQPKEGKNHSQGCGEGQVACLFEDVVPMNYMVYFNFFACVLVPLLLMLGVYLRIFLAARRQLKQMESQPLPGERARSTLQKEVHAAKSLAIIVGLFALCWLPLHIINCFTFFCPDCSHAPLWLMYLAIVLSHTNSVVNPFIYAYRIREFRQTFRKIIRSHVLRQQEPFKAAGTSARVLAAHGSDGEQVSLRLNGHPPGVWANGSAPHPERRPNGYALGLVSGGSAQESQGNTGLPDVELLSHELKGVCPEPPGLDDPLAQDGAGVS

5-HT1A (h) = 5-HT1A (h) (Homo sapiens, UniProt P08908); experiment: biochemical; settings: read-out: % Inhibition of Control Specific Binding
MC3 (h) = MC3 (h) (Homo sapiens, UniProt P41968); experiment: biochemical; settings: read-out: % Inhibition of Control Specific Binding
PCAF = molecular target: T3, PCAF (Homo sapiens, UniProt Q92831); assay type: binding
T3 sequence (Q92831 723-827 limits assumed): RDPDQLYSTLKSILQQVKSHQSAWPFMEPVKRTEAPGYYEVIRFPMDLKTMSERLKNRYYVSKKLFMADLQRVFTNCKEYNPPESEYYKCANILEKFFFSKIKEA

UT (h) = UT (h) (Homo sapiens, UniProt Q9UKP6); experiment: biochemical; settings: read-out: % Inhibition of Control Specific Binding
Chain of UT (h) (Q9UKP6 whole entry): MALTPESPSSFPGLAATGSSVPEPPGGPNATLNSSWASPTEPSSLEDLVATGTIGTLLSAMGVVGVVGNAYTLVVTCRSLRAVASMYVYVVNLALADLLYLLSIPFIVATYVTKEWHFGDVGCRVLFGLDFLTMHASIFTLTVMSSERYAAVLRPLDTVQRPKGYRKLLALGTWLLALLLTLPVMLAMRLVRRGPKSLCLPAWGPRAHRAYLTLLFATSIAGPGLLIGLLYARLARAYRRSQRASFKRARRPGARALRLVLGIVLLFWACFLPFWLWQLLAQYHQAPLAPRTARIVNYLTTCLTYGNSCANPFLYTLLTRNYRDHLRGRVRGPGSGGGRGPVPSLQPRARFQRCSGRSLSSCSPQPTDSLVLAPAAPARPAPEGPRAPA

NOP (ORL1) (h) = NOP (ORL1) (h) (Homo sapiens, UniProt P41146); experiment: biochemical; settings: read-out: % Inhibition of Control Specific Binding
5-HT7 (h) = 5-HT7 (h) (Homo sapiens, UniProt P34969); experiment: biochemical; settings: read-out: % Inhibition of Control Specific Binding
Chain of 5-HT7 (h) (P34969 whole entry): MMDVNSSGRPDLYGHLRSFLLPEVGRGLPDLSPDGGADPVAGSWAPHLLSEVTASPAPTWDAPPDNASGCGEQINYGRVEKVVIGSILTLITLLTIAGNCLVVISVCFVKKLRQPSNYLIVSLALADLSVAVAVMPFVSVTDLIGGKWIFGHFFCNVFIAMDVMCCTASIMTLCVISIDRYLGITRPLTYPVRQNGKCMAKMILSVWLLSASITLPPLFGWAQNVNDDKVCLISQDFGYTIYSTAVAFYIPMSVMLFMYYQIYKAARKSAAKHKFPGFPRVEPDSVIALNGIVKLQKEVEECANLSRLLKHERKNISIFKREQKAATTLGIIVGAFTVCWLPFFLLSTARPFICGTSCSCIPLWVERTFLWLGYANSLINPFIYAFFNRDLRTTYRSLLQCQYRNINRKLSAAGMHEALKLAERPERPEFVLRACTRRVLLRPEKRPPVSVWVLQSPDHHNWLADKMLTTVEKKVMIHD

motilin (h) = motilin (h) (Homo sapiens, UniProt O43193); experiment: biochemical; assay type: binding; settings: read-out: % Inhibition of Control Specific Binding
BLT1 (LTB4) (h) = BLT1 (LTB4) (h) (Homo sapiens, UniProt Q15722); experiment: biochemical; settings: read-out: % Inhibition of Control Specific Binding
MV4;11 [1] = experiment: cells; assay type: cell-based, human; settings: Homo sapiens, MV4-11, 72 h, read-out: IC50, cell proliferation
[2] = molecular target: choline transporter (CHT1) (h) (Homo sapiens, UniProt Q9GZV3); experiment: biochemical; assay type: binding; settings: read-out: % Inhibition of Control Specific Binding
Chain of choline transporter (CHT1) (h) (Q9GZV3 whole entry): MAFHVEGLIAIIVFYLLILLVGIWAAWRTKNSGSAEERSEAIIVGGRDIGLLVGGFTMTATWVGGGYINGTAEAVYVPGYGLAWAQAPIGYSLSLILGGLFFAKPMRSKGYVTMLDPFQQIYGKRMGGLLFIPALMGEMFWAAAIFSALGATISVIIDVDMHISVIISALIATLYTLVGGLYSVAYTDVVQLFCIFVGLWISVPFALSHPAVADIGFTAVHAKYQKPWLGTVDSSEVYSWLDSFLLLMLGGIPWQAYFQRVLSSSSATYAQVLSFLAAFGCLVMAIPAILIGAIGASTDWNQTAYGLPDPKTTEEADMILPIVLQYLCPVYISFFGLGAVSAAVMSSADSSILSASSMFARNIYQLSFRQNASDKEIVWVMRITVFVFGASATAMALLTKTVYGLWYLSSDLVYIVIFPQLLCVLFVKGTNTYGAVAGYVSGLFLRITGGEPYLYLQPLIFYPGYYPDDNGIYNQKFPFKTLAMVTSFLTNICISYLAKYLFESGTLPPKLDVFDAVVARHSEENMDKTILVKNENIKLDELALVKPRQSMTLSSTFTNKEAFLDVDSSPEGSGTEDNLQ

TAF1L(2) = molecular target: T4, TAF1L(2) (Homo sapiens, UniProt Q8IZX4); assay type: binding
T4 construct: the second BRD of TAF1L [TAF1L(2); S2E]; made in house; host or cells: bacteria
T4 sequence (Q8IZX4 1517-1626 limits assumed): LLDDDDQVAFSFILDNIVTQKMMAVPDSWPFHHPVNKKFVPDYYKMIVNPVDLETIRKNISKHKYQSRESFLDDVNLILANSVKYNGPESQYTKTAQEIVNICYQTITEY

MV4;11 [3] = assay type: cell-based, human
BRD2(2) = BRD2(2) (Homo sapiens, UniProt P25440)
Chain of BRD2(2) (P25440 344-453 limits assumed): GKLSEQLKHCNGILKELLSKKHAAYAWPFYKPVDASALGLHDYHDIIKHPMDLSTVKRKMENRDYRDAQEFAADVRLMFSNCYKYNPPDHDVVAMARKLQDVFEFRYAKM

H3 (h) = H3 (h) (Homo sapiens, UniProt Q9Y5N1); experiment: biochemical; settings: read-out: % Inhibition of Control Specific Binding
Chain of H3 (h) (Q9Y5N1 whole entry): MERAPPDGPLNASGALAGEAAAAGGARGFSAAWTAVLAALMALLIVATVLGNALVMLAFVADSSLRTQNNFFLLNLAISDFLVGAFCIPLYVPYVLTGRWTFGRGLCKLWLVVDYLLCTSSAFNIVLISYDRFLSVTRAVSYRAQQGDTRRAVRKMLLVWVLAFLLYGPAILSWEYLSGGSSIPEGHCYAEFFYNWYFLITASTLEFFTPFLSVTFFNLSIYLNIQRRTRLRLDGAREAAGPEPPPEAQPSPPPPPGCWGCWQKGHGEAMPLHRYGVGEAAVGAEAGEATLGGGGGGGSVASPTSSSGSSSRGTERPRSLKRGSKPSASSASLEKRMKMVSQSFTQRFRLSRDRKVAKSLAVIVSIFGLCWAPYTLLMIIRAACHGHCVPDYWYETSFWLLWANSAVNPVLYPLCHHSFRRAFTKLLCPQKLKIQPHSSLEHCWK

OCI-AML3 = experiment: cells; assay type: cell-based, human; settings: Homo sapiens, OCI-AML-3, 72 h, read-out: IC50, cell proliferation
mu (MOP) (h) = mu (MOP) (h) (Homo sapiens, UniProt P35372); experiment: biochemical; settings: read-out: % Inhibition of Control Specific Binding
5-HT2A (h) = 5-HT2A (h) (Homo sapiens, UniProt P28223); experiment: biochemical; settings: read-out: % Inhibition of Control Specific Binding
Chain of 5-HT2A (h) (P28223 whole entry): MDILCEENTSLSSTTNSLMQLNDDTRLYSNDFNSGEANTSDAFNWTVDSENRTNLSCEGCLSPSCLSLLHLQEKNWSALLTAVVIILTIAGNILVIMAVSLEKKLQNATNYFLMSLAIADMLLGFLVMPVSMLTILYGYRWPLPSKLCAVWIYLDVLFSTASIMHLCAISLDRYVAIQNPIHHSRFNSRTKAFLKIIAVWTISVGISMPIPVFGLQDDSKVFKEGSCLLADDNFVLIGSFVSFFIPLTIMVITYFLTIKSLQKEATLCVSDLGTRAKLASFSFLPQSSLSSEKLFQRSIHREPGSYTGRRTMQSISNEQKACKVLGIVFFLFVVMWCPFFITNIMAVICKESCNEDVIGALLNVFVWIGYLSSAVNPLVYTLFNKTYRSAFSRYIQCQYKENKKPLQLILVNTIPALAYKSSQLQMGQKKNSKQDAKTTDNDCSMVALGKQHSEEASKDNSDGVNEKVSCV

MC4 (h) = MC4 (h) (Homo sapiens, UniProt P32245); experiment: biochemical; settings: read-out: % Inhibition of Control Specific Binding
Chain of MC4 (h) (P32245 whole entry): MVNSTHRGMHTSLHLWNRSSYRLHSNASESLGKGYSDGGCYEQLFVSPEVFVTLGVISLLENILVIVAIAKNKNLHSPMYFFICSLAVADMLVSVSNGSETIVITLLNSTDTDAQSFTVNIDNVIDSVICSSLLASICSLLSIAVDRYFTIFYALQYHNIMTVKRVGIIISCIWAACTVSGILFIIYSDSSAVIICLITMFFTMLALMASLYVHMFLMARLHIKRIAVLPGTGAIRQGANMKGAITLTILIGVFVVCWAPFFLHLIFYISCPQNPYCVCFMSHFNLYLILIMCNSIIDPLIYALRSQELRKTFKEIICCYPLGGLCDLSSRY

dopamine transporter (h) = dopamine transporter (h) (Homo sapiens, UniProt Q01959); experiment: biochemical; settings: read-out: % Inhibition of Control Specific Binding
H2 (h) = H2 (h) (Homo sapiens, UniProt P25021); experiment: biochemical; settings: read-out: % Inhibition of Control Specific Binding
delta 2 (DOP) (h) = delta 2 (DOP) (h) (Homo sapiens, UniProt P41143); experiment: biochemical; settings: read-out: % Inhibition of Control Specific Binding
Chain of delta 2 (DOP) (h) (P41143 whole entry): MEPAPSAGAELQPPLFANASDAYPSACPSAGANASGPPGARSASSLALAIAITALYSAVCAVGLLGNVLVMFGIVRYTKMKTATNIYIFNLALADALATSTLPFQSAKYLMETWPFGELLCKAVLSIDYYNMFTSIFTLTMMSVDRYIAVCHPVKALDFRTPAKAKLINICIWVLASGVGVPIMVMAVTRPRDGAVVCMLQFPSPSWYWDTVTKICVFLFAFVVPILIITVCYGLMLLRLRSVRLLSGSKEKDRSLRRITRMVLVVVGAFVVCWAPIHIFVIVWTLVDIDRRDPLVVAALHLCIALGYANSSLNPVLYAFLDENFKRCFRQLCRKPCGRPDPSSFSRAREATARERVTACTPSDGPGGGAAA

SMARCA4 = SMARCA4 (Homo sapiens, UniProt P51532); assay type: binding
Chain of SMARCA4 (P51532 1453-1564 limits assumed): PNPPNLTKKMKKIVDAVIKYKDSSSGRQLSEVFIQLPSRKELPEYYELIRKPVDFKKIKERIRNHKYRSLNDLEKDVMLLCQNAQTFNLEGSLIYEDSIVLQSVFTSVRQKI

FP (h) = FP (h) (Homo sapiens, UniProt P43088); experiment: biochemical; settings: read-out: % Inhibition of Control Specific Binding
BRD1 = BRD1 (Homo sapiens, UniProt O95696); assay type: binding
Chain of BRD1 (O95696 562-666): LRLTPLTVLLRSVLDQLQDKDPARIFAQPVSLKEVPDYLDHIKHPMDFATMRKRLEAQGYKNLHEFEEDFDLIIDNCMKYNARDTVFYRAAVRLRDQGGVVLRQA

NMDA = experiment: CEREP binding, antagonist radioligand
EP300 = EP300 (Homo sapiens, UniProt Q09472); experiment: biochemical; assay type: binding
Chain of EP300 (Q09472 1049-1156): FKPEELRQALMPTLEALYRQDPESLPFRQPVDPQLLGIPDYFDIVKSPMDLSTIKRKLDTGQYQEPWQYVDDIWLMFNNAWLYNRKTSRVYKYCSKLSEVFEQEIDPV

beta 1 (h) = beta 1 (h) (Homo sapiens, UniProt P08588); experiment: biochemical; settings: read-out: % Inhibition of Control Specific Binding
B2 (h) = B2 (h) (Homo sapiens, UniProt P30411); experiment: biochemical; settings: read-out: % Inhibition of Control Specific Binding
Chain of B2 (h) (P30411 whole entry): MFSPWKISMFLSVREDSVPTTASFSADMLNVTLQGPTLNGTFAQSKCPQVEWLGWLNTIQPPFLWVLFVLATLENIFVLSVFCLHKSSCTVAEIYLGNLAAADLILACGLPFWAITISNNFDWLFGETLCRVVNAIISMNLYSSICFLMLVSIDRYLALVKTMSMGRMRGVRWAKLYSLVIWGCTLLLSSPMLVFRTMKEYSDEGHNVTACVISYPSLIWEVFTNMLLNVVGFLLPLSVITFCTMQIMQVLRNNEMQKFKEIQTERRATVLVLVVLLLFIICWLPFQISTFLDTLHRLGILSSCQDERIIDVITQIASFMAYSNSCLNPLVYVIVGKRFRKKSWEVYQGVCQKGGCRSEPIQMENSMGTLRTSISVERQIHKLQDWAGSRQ

T1 sequence (Q92793 1085-1192 limits assumed): as the sequence (Q09472 1049-1156) above, with S47N, I73V, Y93F, S98A counted along it

Which N (CREBBP) does the source give for `CCOC(=O)Nc1cc(-c2ccc(C)c(NS(C)(=O)=O)c2)nn2c(C)nnc12` [BSP, ethyl (3-methyl-6-(4-methyl-3-(methylsulfonamido)phenyl)-[1,2,4]triazolo[4,3-b]pyridazin-8-yl)carbamate] here?
The N was 1.03 ± 0.011.

What about the TΔS (CREBBP) of the same compound?
The TΔS was 4.72 kcal/mol.

And the “ΔH^obs” value (CREBBP)?
Its value is -2.91 ± 0.041 kcal/mol.

What about the N (BAZ2A) of the same compound?
Its N is 1.05 ± 0.025.

And the TΔS (BAZ2A)?
Its TΔS is 4.12 kcal/mol.

And the ΔG (BAZ2A)?
The ΔG was -7.16 kcal/mol.

What about the “ΔH^obs” value (BAZ2A) of the same compound?
The value was -3.04 ± 0.095 kcal/mol.

What about the inhibition at 10 µM (PAF (h)) of the same compound?
The inhibition at 10 µM was -6%.

What about the inhibition at 10 µM (A2A (h)) of the same compound?
Its inhibition at 10 µM is 68%.

And the inhibition at 10 µM (5-HT1A (h))?
The inhibition at 10 µM was -11%.

And the inhibition at 10 µM (MC3 (h))?
Its inhibition at 10 µM is -7%.

And the N (PCAF)?
The N was 0.95 ± 0.044.

And the TΔS (PCAF)?
Its TΔS is -0.83 kcal/mol.

And the ΔG (PCAF)?
The ΔG was -7.02 kcal/mol.

And the “ΔH^obs” value (PCAF)?
Its value is -7.85 ± 0.454 kcal/mol.

And the inhibition at 10 µM (UT (h))?
The inhibition at 10 µM was -9%.

What about the inhibition at 10 µM (NOP (ORL1) (h)) of the same compound?
The inhibition at 10 µM was -4%.

And the inhibition at 10 µM (5-HT7 (h))?
The inhibition at 10 µM was 7%.

What about the inhibition at 10 µM (motilin (h)) of the same compound?
Its inhibition at 10 µM is 7%.

What about the inhibition at 10 µM (BLT1 (LTB4) (h)) of the same compound?
The inhibition at 10 µM was 3%.

And the IC50 (MV4;11 [1])?
The IC50 was 579 nM.

What about the inhibition at 10 µM [2] of the same compound?
Its inhibition at 10 µM is 39%.

What about the N (TAF1L(2)) of the same compound?
The N was 0.99 ± 0.003.

And the TΔS (TAF1L(2))?
Its TΔS is -2.76 kcal/mol.

And the ΔG (TAF1L(2))?
The ΔG was -9.72 kcal/mol.

What about the “ΔH^obs” value (TAF1L(2)) of the same compound?
Its value is -12.48 ± 0.069 kcal/mol.

And the “effect on cell cycle” value (MV4;11 [3])?
The value was “distinct G1 arrest with reduced S-phase populations”.

What about the N (BRD2(2)) of the same compound?
The N was 1.10 ± 0.003.

What about the TΔS (BRD2(2)) of the same compound?
Its TΔS is 4.18 kcal/mol.

What about the ΔG (BRD2(2)) of the same compound?
Its ΔG is -9.64 kcal/mol.

And the “ΔH^obs” value (BRD2(2))?
Its value is -5.46 ± 0.028 kcal/mol.

And the inhibition at 10 µM (H3 (h))?
The inhibition at 10 µM was 1%.

And the IC50 (OCI-AML3)?
The IC50 was 399 nM.

What about the inhibition at 10 µM (mu (MOP) (h)) of the same compound?
Its inhibition at 10 µM is 1%.

What about the inhibition at 10 µM (5-HT2A (h)) of the same compound?
The inhibition at 10 µM was 17%.

What about the inhibition at 10 µM (MC4 (h)) of the same compound?
The inhibition at 10 µM was -23%.

What about the inhibition at 10 µM (dopamine transporter (h)) of the same compound?
The inhibition at 10 µM was 28%.

What about the inhibition at 10 µM (H2 (h)) of the same compound?
The inhibition at 10 µM was 5%.

And the inhibition at 10 µM (delta 2 (DOP) (h))?
Its inhibition at 10 µM is 7%.

What about the N (SMARCA4) of the same compound?
Its N is 0.99 ± 0.055.

What about the TΔS (SMARCA4) of the same compound?
The TΔS was -2.84 kcal/mol.

And the ΔG (SMARCA4)?
Its ΔG is -6.21 kcal/mol.

What about the “ΔH^obs” value (SMARCA4) of the same compound?
The value was -9.05 ± 0.580 kcal/mol.

What about the inhibition at 10 µM (FP (h)) of the same compound?
The inhibition at 10 µM was 5%.

And the N (BRD1)?
Its N is 1.01 ± 0.008.

What about the TΔS (BRD1) of the same compound?
Its TΔS is 0.30 kcal/mol.

What about the ΔG (BRD1) of the same compound?
Its ΔG is -7.62 kcal/mol.

And the “ΔH^obs” value (BRD1)?
Its value is -7.32 ± 0.078 kcal/mol.

And the “% Inhibition of Control Specific Binding” value (NMDA)?
The value was -2.

And the Kd (EP300)?
The Kd was 7190 nM.

And the N (EP300)?
The N was 0.97 ± 0.036.

What about the TΔS (EP300) of the same compound?
Its TΔS is 1.13 kcal/mol.

And the ΔG (EP300)?
Its ΔG is -6.78 kcal/mol.

What about the “ΔH^obs” value (EP300) of the same compound?
Its value is -5.65 ± 0.265 kcal/mol.

And the inhibition at 10 µM (beta 1 (h))?
Its inhibition at 10 µM is 4%.

And the inhibition at 10 µM (B2 (h))?
The inhibition at 10 µM was -1%.
